The results in this text go back to US7504420B2, “Compounds which inhibit beta-secretase activity and methods of use” (CoMentis, Inc., priority 2005, dated 2009).

The test system of test [1] is Aβ production in Chinese hamster ovary cells that over-express human APP695 with the London and Swedish mutations. Nature of the test: Cellular Aβ IC50 determination (Aβ40 sandwich ELISA). Particulars: 24 h.
The target of the next test is memapsin 2 (Homo sapiens, UniProt P56817). Briefly: Inhibition of memapsin 2 catalytic activity (Ki). The following applies: memapsin 2, pH 4, 37° C.; read-out: M2K. The class given is biochemical. Here is the method:
Potency of compounds were determined by measurement of their inhibition of memapsin 2 catalytic activity toward a fluorescent substrate. […] Briefly, assays were performed at pH 4, 37° C., by pre-incubation of memapsin 2 enzyme with compound for 20 minutes. Activity measure was initiated by addition of a fluorogenic substrate FS-2 (Bachem Americas, Torrance, Calif.). Fluorescent signal increase over time was measured as a rate of hydrolysis of the peptide substrate. […]

Where [2] appears, read: Cricetulus griseus, CHO, read-out: Cell, Aβ40, CHO cells over-expressing human APP695 (London and Swedish mutations), 24 h.
[3] abbreviates: Cricetulus griseus, CHO, read-out: Cell.

Counter-ions that a name gives are not always drawn. Like-named read-outs stand apart in the source and are kept apart here.

memapsin 2, sequence (P56817 46-501): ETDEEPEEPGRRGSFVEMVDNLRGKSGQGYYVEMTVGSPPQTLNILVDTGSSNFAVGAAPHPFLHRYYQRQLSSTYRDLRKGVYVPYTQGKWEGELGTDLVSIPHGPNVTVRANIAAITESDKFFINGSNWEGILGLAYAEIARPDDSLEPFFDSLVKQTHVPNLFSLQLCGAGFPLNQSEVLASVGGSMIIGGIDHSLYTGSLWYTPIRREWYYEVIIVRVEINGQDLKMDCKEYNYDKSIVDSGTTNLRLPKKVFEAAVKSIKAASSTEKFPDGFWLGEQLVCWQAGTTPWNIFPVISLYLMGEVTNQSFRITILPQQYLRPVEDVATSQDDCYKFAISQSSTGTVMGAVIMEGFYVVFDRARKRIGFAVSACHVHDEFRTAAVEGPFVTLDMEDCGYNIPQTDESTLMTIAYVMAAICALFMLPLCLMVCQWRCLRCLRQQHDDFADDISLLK

`COc1cccc(CNCC(O)C(Cc2cc(F)cc(F)c2)NC(=O)c2cccc(C(=O)N(C)Cc3nc(C)cs3)c2)c1` (centres unmarked) [N1-(1-(3,5-difluorophenyl)-3-hydroxy-4-(3-methoxybenzylamino)butan-2-yl)-N3-methyl-N3-((4-methylthiazol-2-yl)methyl)isophthalamide]: in test [1] (setting [2]), the IC50 is under 1000 nM. For the same compound, the Ki on memapsin 2 is under 300 nM.

With `CC(NC(=O)c1cc(C(=O)NC(Cc2ccccc2)C(O)CNCc2cccc(OC(F)(F)F)c2)cc(N(C)S(C)(=O)=O)c1)c1ccccc1` (centres unmarked) [N1-(3-hydroxy-1-phenyl-4-(3-(trifluoromethoxy)benzylamino)butan-2-yl)-5-(N-methylmethylsulfonamido)-N3-(1-phenylethyl)isophthalamide], in test [1] (setting [2]), the IC50 was under 1000 nM. Also, the Ki on memapsin 2 was under 300 nM.

In the case of `Cc1csc(CN(C)C(=O)c2cccc(C(=O)NC(Cc3ccccc3)C(O)CNCc3cccc(OC(F)(F)F)c3)c2)n1` (centres unmarked) [N1-(3-hydroxy-1-phenyl-4-(3-(trifluoromethoxy)benzylamino)butan-2-yl)-N3-methyl-N3-((4-methylthiazol-2-yl)methyl)isophthalamide], in test [1] (setting [2]), the IC50 was under 1000 nM. Besides, at memapsin 2, the Ki was under 300 nM.

For `CC(NC(=O)c1cc(C(=O)NC(Cc2ccccc2)C(O)CNCc2nccn2COCC[Si](C)(C)C)cc(N(C)S(C)(=O)=O)c1)c1ccccc1` (centres unmarked) [N1-(3-hydroxy-1-phenyl-4-((1-((2-(trimethylsilyl)ethoxy)methyl)-1H-imidazol-2-yl)methylamino)butan-2-yl)-5-(N-methylmethylsulfonamido)-N3-(1-phenylethyl)isophthalamide], the IC50 in test [1] (setting [3]) was over 5000 nM. On memapsin 2, the Ki was in the range of 301 to 500 nM.

`CC(NC(=O)c1cc(C(=O)NC(Cc2ccccc2)C(O)CNCc2cccn2COCC[Si](C)(C)C)cc(N(C)S(C)(=O)=O)c1)c1ccccc1` (centres unmarked) [N1-(3-hydroxy-1-phenyl-4-((1-((2-(trimethylsilyl)ethoxy)methyl)-1H-pyrrol-2-yl)methylamino)butan-2-yl)-5-(N-methylmethylsulfonamido)-N3-(1-phenylethyl)isophthalamide]: the IC50 in test [1] (setting [3]) is under 1000 nM. For the same compound, the Ki at memapsin 2 is 301 to 500 nM.

Regarding `Cc1cc(C(C)NCC(O)C(Cc2ccccc2)NC(=O)c2cc(C(=O)NC(C)c3ccccc3)cc(N(C)S(C)(=O)=O)c2)on1` (centres unmarked) [N1-(3-hydroxy-4-(1-(3-methylisoxazol-5-yl)ethylamino)-1-phenylbutan-2-yl)-5-(N-methylmethylsulfonamido)-N3-(1-phenylethyl)isophthalamide], the IC50 in test [1] (setting [2]) was under 1000 nM. At memapsin 2, the Ki was under 300 nM.

Consider `Cc1csc(C(C)NCC(O)C(Cc2ccccc2)NC(=O)c2cc(C(=O)NC(C)c3ccccc3)cc(N(C)S(C)(=O)=O)c2)n1` (centres unmarked) [N1-(3-hydroxy-4-(1-(4-methylthiazol-2-yl)ethylamino)-1-phenylbutan-2-yl)-5-(N-methylmethylsulfonamido)-N3-(1-phenylethyl)isophthalamide], for which the IC50 in test [1] (setting [2]) was under 1000 nM. The Ki at memapsin 2 was under 300 nM.

With `CC(NC(=O)c1cc(C(=O)NC(Cc2ccccc2)C(O)CNC(CO)c2ccccc2)cc(N(C)S(C)(=O)=O)c1)c1ccccc1` (centres unmarked) [N1-(3-hydroxy-4-(2-hydroxy-1-phenylethylamino)-1-phenylbutan-2-yl)-5-(N-methylmethylsulfonamido)-N3-(1-phenylethyl)isophthalamide], the IC50 in test [1] (setting [2]) is under 1000 nM. At memapsin 2, the Ki was under 300 nM.

As for `COc1ccccc1CNCC(O)C(Cc1ccccc1)NC(=O)c1cccc(C(=O)N(C)Cc2nc(C)cs2)c1` (centres unmarked) [N1-(3-hydroxy-4-(2-methoxybenzylamino)-1-phenylbutan-2-yl)-N3-methyl-N3-((4-methylthiazol-2-yl)methyl)isophthalamide], the IC50 in test [1] (setting [2]) was in the range of 1000 to 5000 nM. Moreover, on memapsin 2, the Ki is over 501 nM.

As to `COc1ccccc1CCNCC(O)C(Cc1ccccc1)NC(=O)c1cccc(C(=O)N(C)Cc2nc(C)cs2)c1` (centres unmarked) [N1-(3-hydroxy-4-(2-methoxyphenethylamino)-1-phenylbutan-2-yl)-N3-methyl-N3-((4-methylthiazol-2-yl)methyl)isophthalamide], the IC50 in test [1] (setting [2]) lay within 1000 to 5000 nM. Besides, the Ki on memapsin 2 was over 501 nM.

With `COc1cc(CCCNCC(O)C(Cc2ccccc2)NC(=O)c2cc(C(=O)NC(C)c3ccccc3)cc(N(C)S(C)(=O)=O)c2)ccc1C` (centres unmarked) [N1-(3-hydroxy-4-(3-(3-methoxy-4-methylphenyl)propylamino)-1-phenylbutan-2-yl)-5-(N-methylmethylsulfonamido)-N3-(1-phenylethyl)isophthalamide], in test [1] (setting [2]), the IC50 was 1000 to 5000 nM. Further, the Ki on memapsin 2 was under 300 nM.

For the compound `COc1ccc(CCNCC(O)C(Cc2ccccc2)NC(=O)c2cc(C(=O)NC(C)c3ccccc3)cc(N(C)S(C)(=O)=O)c2)cc1O` (centres unmarked) [N1-(3-hydroxy-4-(3-hydroxy-4-methoxyphenethylamino)-1-phenylbutan-2-yl)-5-(N-methylmethylsulfonamido)-N3-(1-phenylethyl)isophthalamide], the IC50 in test [1] (setting [2]) lay within 1000 to 5000 nM. For the same compound, at memapsin 2, the Ki was under 300 nM.

Regarding `COc1ccccc1CN1CCC(CNCC(O)C(Cc2ccccc2)NC(=O)c2cc(C(=O)NC(C)c3ccccc3)cc(N(C)S(C)(=O)=O)c2)CC1` (centres unmarked) [N1-(3-hydroxy-4-((1-(2-methoxybenzyl)piperidin-4-yl)methylamino)-1-phenylbutan-2-yl)-5-(N-methylmethylsulfonamido)-N3-(1-phenylethyl)isophthalamide], the IC50 in test [1] (read-out: Cell, Aβ40, CHO cells over-expressing human APP695 (London and Swedish mutations)) lay within 1000 to 5000 nM.

With `CC(C)CN1CCC(CNCC(O)C(Cc2ccccc2)NC(=O)c2cc(C(=O)NC(C)c3ccccc3)cc(N(C)S(C)(=O)=O)c2)CC1` (centres unmarked) [N1-(3-hydroxy-4-((1-isobutylpiperidin-4-yl)methylamino)-1-phenylbutan-2-yl)-5-(N-methylmethylsulfonamido)-N3-(1-phenylethyl)isophthalamide dihydrochloride], in test [1] (setting [2]), the IC50 is over 5000 nM.

In the case of `COc1ccnc(CNCC(O)C(Cc2ccccc2)NC(=O)c2cc(C(=O)NC(C)c3ccccc3)cc(N(C)S(C)(=O)=O)c2)c1` (centres unmarked) [N1-(3-hydroxy-4-((4-methoxypyridin-2-yl)methylamino)-1-phenylbutan-2-yl)-5-(N-methylmethylsulfonamido)-N3-(1-phenylethyl)isophthalamide], the IC50 in test [1] (setting [2]) is under 1000 nM.

As to `CC(C)Cc1cncc(CNCC(O)C(Cc2ccccc2)NC(=O)c2cc(C(=O)NC(C)c3ccccc3)cc(N(C)S(C)(=O)=O)c2)c1` (centres unmarked) [N1-(3-hydroxy-4-((5-isobutylpyridin-3-yl)methylamino)-1-phenylbutan-2-yl)-5-(N-methylmethylsulfonamido)-N3-(1-phenylethyl)isophthalamide], the IC50 in test [1] (setting [2]) was under 1000 nM.

For the compound `COc1cccc(CN(CC(O)C(Cc2ccccc2)NC(=O)c2cc(C(=O)NC(C)c3ccccc3)cc(N(C)S(C)(=O)=O)c2)C(=O)CCC(=O)NCCN2CCOCC2)c1` (centres unmarked) [N1-(3-hydroxy-4-(N-(3-methoxybenzyl)-4-(2-morpholinoethylamino)-4-oxobutanamido)-1-phenylbutan-2-yl)-5-(N-methylmethylsulfonamido)-N3-(1-phenylethyl)isophthalamide], the IC50 in test [1] (setting [2]) lay in the range of 1000 to 5000 nM.

In the case of `COc1cccc(CN(CC(O)C(Cc2ccccc2)NC(=O)c2cc(C(=O)NC(C)c3ccccc3)cc(N(C)S(C)(=O)=O)c2)C(=O)CCC(=O)NCc2cccnc2)c1` (centres unmarked) [N1-(3-hydroxy-4-(N-(3-methoxybenzyl)-4-oxo-4-(pyridin-3-ylmethylamino)butanamido)-1-phenylbutan-2-yl)-5-(N-methylmethylsulfonamido)-N3-(1-phenylethyl)isophthalamide], the IC50 in test [1] (setting [2]) was over 5000 nM.

`COc1cccc(CN(CC(O)C(Cc2ccccc2)NC(=O)c2cc(C(=O)NC(C)c3ccccc3)cc(N(C)S(C)(=O)=O)c2)C(=O)CCCC(=O)NCCN2CCOCC2)c1` (centres unmarked) [N1-(3-hydroxy-4-(N-(3-methoxybenzyl)-5-(2-morpholinoethylamino)-5-oxopentanamido)-1-phenylbutan-2-yl)-5-(N-methylmethylsulfonamido)-N3-(1-phenylethyl)isophthalamide]: the IC50 in test [1] (setting [2]) was over 5000 nM.

For the compound `COc1cccc(CN(CC(O)C(Cc2ccccc2)NC(=O)c2cc(C(=O)NC(C)c3ccccc3)cc(N(C)S(C)(=O)=O)c2)C(=O)CCCC(=O)NN2CCN(C)CC2)c1` (centres unmarked) [N1-(3-hydroxy-4-(N-(3-methoxybenzyl)-5-(4-methylpiperazin-1-ylamino)-5-oxopentanamido)-1-phenylbutan-2-yl)-5-(N-methylmethylsulfonamido)-N3-(1-phenylethyl)isophthalamide], the IC50 in test [1] (setting [2]) was over 5000 nM.

As for `COc1cccc(CN(CC(O)C(Cc2ccccc2)NC(=O)c2cc(C(=O)NC(C)c3ccccc3)cc(N(C)S(C)(=O)=O)c2)C(=O)CCCC(=O)NCc2cccnc2)c1` (centres unmarked) [N1-(3-hydroxy-4-(N-(3-methoxybenzyl)-5-oxo-5-(pyridin-3-ylmethylamino)pentanamido)-1-phenylbutan-2-yl)-5-(N-methylmethylsulfonamido)-N3-(1-phenylethyl)isophthalamide], the IC50 in test [1] (setting [2]) was over 5000 nM.

For the compound `COc1cccc(CN(CC(O)C(Cc2ccccc2)NC(=O)c2cc(C(=O)NC(C)c3ccccc3)cc(N(C)S(C)(=O)=O)c2)C(=O)CN(C)C)c1` (centres unmarked) [N1-(4-(2-(dimethylamino)-N-(3-methoxybenzyl)acetamido)-3-hydroxy-1-phenylbutan-2-yl)-5-(N-methylmethylsulfonamido)-N3-(1-phenylethyl)isophthalamide], in test [1] (setting [2]), the IC50 was 1000 to 5000 nM.

In the case of `COC(=O)CCCC(=O)N(Cc1cccc(OC)c1)CC(O)C(Cc1ccccc1)NC(=O)c1cc(C(=O)NC(C)c2ccccc2)cc(N(C)S(C)(=O)=O)c1` (centres unmarked) [methyl 5-((2-hydroxy-3-(3-(N-methylmethylsulfonamido)-5-(1-phenylethylcarbamoyl)benzamido)-4-phenylbutyl)(3-methoxybenzyl)amino)-5-oxopentanoate], the IC50 in test [1] (setting [2]) is under 1000 nM.
